From US20150065693A1, “COMPOSITION FOR PROPHYLAXIS OR TREATMENT OF VASCULAR OR CARDIAC VALVULAR CALCIFICATION COMPRISING DIPEPTIDYL PEPTIDASE-4 INHIBITOR” (THE ASAN FOUNDATION, priority 2013, published 2015)

Assays:
[1] = test system: CD26/DPP-4 mRNA; assay: CD26/DPP-4 mRNA expression by RT-PCR in vascular smooth muscle cells; format: cell-based, mice; settings: extent in proportion to the concentration of DETA-NO, FIG. 4
[2] = test system: calcification of the cardioaorta; assay: In vivo calcium deposition in the cardioaorta by Osteosense fluorescence; settings: control and eNOS KO transgenic mice, FIG. 11
Method: To determine whether the calcification of the cardioaorta decreased by the CD26 inhibitor, a CD26 inhibitor drug, DPPIV inhibitor sitagliptin, was administered to the control and the eNOS KO transgenic mice. Thereafter, the intensity of fluorescence was monitored by injecting Osteosense into the mice to check the in vivo calcium deposition. In FIG. 11, the red intensity of fluorescence represents a level of calcification.

[3] = test system: vascular smooth muscle cells from the eNOS KO mice; assay: Osteogenic differentiation of vascular smooth muscle cells (ALP, AR, VK staining); format: cell-based; settings: FIG. 10B
Method: The aorta extracted with the heart was washed with a serum-free M199 medium (Cellgro), and cut into small pieces. Thereafter, 20% fetal calf serum, and 3 mg/mL collagenase (Sigma) were added to the M199 medium, and […] for 3 hours in a 37° C. water bath. Then, it was confirmed that the separated cells were vascular smooth muscle cells using an α-SM actin monoclonal antibody (Sigma). The separated vascular smooth muscle cells were divided at a 30% concentration, and the medium used was replaced with osteogenic medium (Osteogenic Basal Medium, Osteogenic SingleQuots, Lonza, USA) after 24 hours. The medium was replaced every 3 days, and the cell culture was performed for 28 days. The concentration of sCD26/DPP-4 was measured upon medium replacement.
For the wild-type mice and eNOS KO mice, it was determined whether the promotion of ossification of vascular smooth muscle cells was induced by CD26 using an ALP staining method as a staining method used at the initial calcification stage, an AR staining method as a staining method used at the middle calcification stage, and a VK staining method as a staining method used at the late calcification stage.
Also, the vascular smooth muscle cells from the eNOS KO mice were treated with CD26 and a CD26 inhibitor, diprotin A, respectively.

NCCN(CCN)/[N+]([O-])=N/O [DETA-NO]
expression of the CD26/DPP-4 mRNA [1]: decreased

N[C@@H](CC(=O)N1CCn2c(nnc2C(F)(F)F)C1)Cc1cc(F)c(F)cc1F [sitagliptin]
calcification in the cardioaorta [2]: slowly proceeded

diprotin A
osteogenic differentiation [3]: inhibited
